Data on 80 compounds can be found in PMC12040169 (PLOS Biology, 2025).

The data set is described as follows: in vitro. The following applies: human, hela cells, % viability.

Usually viability stands for a read-out of living cells in per cent, often relative to untreated cells. In the case of `O=C(O)c1cccc(NS(=O)(=O)c2cc(C(F)(F)F)cc(C(F)(F)F)c2)c1` [CBK155725], the viability at 28.5 h, 10 µM turned out to be 102%.

As to `O=C(O)CC(NC(=O)c1ccco1)c1ccc(F)cc1` (centres unmarked) [CBK057988], the viability at 28.5 h, 10 µM came to 107%.

Take `O=C(O)CSc1nnc(-c2ccc(S(=O)(=O)N3CCCCCC3)cc2)o1` [CBK300508]: the viability at 28.5 h, 10 µM came to 81.9%.

Consider `COc1ccc(C2C(C(C)=O)=C(O)C(=O)N2CCCC(=O)O)cc1` (centres unmarked) [CBK263774], for which the viability at 28.5 h, 10 µM was found to be 100%.

As for `COC(=O)CCc1ccc(S(=O)(=O)N2CCCN(Cc3ccc4c(c3)OCO4)CC2)cc1` [CBK063130], the viability at 28.5 h, 10 µM is 106%.

Consider `Cc1ccc(-n2nc(-c3ccc(NC(=O)c4ccccc4)cc3)cc2NC(=O)c2ccccc2)cc1` [CBK261265], for which the viability at 28.5 h, 10 µM was determined as 92.3%.

As for `Cc1nc(CNC(=O)NC2CCCN(c3ccn(C)n3)C2=O)c(C)s1` (centres unmarked) [CBK305926], the viability at 28.5 h, 10 µM worked out at 95%.

For `c1coc(-c2nc3cnccn3c2NC2CCCCC2)c1` [CBK283498], the viability at 28.5 h, 10 µM was determined as 93.6%.

In the case of `c1cnc2c(c1)cc([C@H]1CCCO1)n2CCN1CCCC1` [CBK282289], the viability at 28.5 h, 10 µM came to 91.9%.

For `CCOC(=O)c1nc(C)sc1-c1ccnn1S(C)(=O)=O` [CBK007130], the viability at 28.5 h, 10 µM was found to be 108%.

Consider `OCc1ccccc1CN1CCOCC1` [CBK264388C], for which the viability at 28.5 h, 10 µM came to 83.3%.

For `COc1ccc(-n2nc([N+](=O)[O-])c(NCc3ccccn3)[n+]2[O-])cc1` [CBK268430], the viability at 28.5 h, 10 µM was 96.3%.

As for `Cc1ccc(S(=O)(=O)Oc2cccc(C(c3c(C)n[nH]c3O)c3c(C)n[nH]c3O)c2)cc1` [CBK265016], the viability at 28.5 h, 10 µM was found to be 95.1%.

As for `CC1CCN(c2nc(-c3ccccc3O)nc3ccccc23)CC1` [CBK066899], the viability at 28.5 h, 10 µM was found to be 109%.

Take `COc1ccc(N(CC(=O)O)S(=O)(=O)c2ccccc2[N+](=O)[O-])c(OC)c1` [CBK262729]: the viability at 28.5 h, 10 µM came out at 92.6%.

Take `CNS(=O)(=O)c1ccc(NC(=O)Nc2ccc([N+](=O)[O-])cc2OC)cc1` [CBK266939]: the viability at 28.5 h, 10 µM is 93.1%.

On to `O=S(=O)(Nc1ccc(-c2nnn[nH]2)cc1)c1c(Cl)cc(C(F)(F)F)cc1Cl` [CBK155570], for which the viability at 28.5 h, 10 µM came to 95.4%.

`CCCC(=O)Nc1ccc(C(=O)O)cc1NC(=O)CCC` [CBK286939]: the viability at 28.5 h, 10 µM worked out at 92.3%.

As for `CCc1nn(CC(=O)N(C(C)C)C(C)C)c(=O)c2cc3occc3n12` [CBK283658], the viability at 28.5 h, 10 µM is 89.3%.

`CC(=O)N1c2ccc(-c3cn4ccc(C)cc4n3)cc2CC1C` (centres unmarked) [CBK285191]: the viability at 28.5 h, 10 µM came to 79.2%.

Regarding `CCN(Cc1ccc(OC)c(OC)c1)C(=O)CSc1nc(CC(=O)O)cs1` [CBK296643], the viability at 28.5 h, 10 µM was found to be 97.5%.

As for `CC(=O)N1CCc2sccc2C1c1ccc(NCc2ccc(F)cc2)cc1` (centres unmarked) [CBK286442], the viability at 28.5 h, 10 µM is 90.3%.

With `CCn1ncc(CN2CCCCCC2c2cc(C)on2)c1C` (centres unmarked) [CBK282141], the viability at 28.5 h, 10 µM worked out at 91.7%.

For `Cc1c(-c2cc(C(F)F)n3nc(CCC(=O)O)nc3n2)cnn1C` [CBK286888], the viability at 28.5 h, 10 µM amounted to 85.7%.

In the case of `Cc1ccc(S(=O)(=O)N(CC(=O)Nc2cccnc2)c2cc(C)ccc2C)cc1` [CBK264115], the viability at 28.5 h, 10 µM turned out to be 61.7%.

In the case of `O=C(C[C@@H]1CCNC[C@@H]1Cc1cc(CN2CCCCC2)on1)N1CCCCC1` [CBK289153], the viability at 28.5 h, 10 µM stood at 86.8%.

For the compound `Cc1ccccc1CSCC(=O)Nc1c[nH]c(=O)[nH]c1=O` [CBK269790], the viability at 28.5 h, 10 µM stood at 86.8%.

Regarding `CCOC(=O)Cn1[nH]c(COC(C)(C)C)c(Cc2c(Cl)cccc2Cl)c1=O` [CBK103551], the viability at 28.5 h, 10 µM was determined as 114%.

`CS(=O)(=O)Nc1cccc2cc[nH]c12` [CBK159509]: the viability at 28.5 h, 10 µM was 110%.

With `CC(=O)N(C)c1nc(-c2cccc(N(C)C)c2)ccc1C(=O)Nc1ccc(C(F)(F)F)cc1` [CBK076623], the viability at 28.5 h, 10 µM was found to be 98.5%.

As for `Cc1cc(F)ccc1S(=O)(=O)NCC1CC(=O)Nc2ccccc21` (centres unmarked) [CBK305210], the viability at 28.5 h, 10 µM was 86.5%.

Consider `O=C(c1nc2ccccc2[nH]1)N1CCc2ccccc21` [CBK200411], for which the viability at 28.5 h, 10 µM turned out to be 87.8%.

`CN(C)c1ccc(-c2ncnn2CC(F)(F)F)cn1` [CBK307215]: the viability at 28.5 h, 10 µM stood at 88%.

Consider `COc1ccc(S(=O)(=O)NC(C)C(=O)Nc2cc(Cl)ccc2OC)cc1` (centres unmarked) [CBK269479], for which the viability at 28.5 h, 10 µM was determined as 104%.

For `C[C@H](Nc1cncc(-c2cccc(C(=O)NCCO)c2)n1)c1ccccc1` [CBK066007], the viability at 28.5 h, 10 µM is 108%.

On to `CCOc1cccc(NC(=O)/C(C#N)=C\c2cc(C)n(-c3ccc4c(c3)OCO4)c2C)c1` [CBK263191], for which the viability at 28.5 h, 10 µM stood at 85.9%.

Regarding `COc1ccc2c(c1)C(C[C@H]1CN(C(=O)C3CC3)CC[C@H]1CC(=O)O)=NCC2` [CBK289157], the viability at 28.5 h, 10 µM stood at 85.7%.

Consider `Cc1cc(COC(=O)N2CCc3ccccc32)cc(C)n1` [CBK200134], for which the viability at 28.5 h, 10 µM came out at 81.4%.

For `COc1ccc(C)cc1C1(CNC(=O)C2CC2C(=O)O)CCOCC1` (centres unmarked) [CBK304492], the viability at 28.5 h, 10 µM is 82%.

With `COc1ccc(-c2nc(-c3ccncc3)ncc2C(=O)NCc2ccncc2)cc1` [CBK291112], the viability at 28.5 h, 10 µM was 96.4%.

`NC(=O)C1(N2CCCCC2)CCN(CC(=O)Nc2ccccc2Sc2ccccc2)CC1` [CBK268488]: the viability at 28.5 h, 10 µM amounted to 94.7%.

In the case of `O=C(c1cc2cc(Cl)ccc2[nH]1)N1CCN(c2ccccn2)CC1` [CBK107343], the viability at 28.5 h, 10 µM worked out at 93.7%.

As to `CSc1cc(-c2cccs2)[nH]c(=O)c1C#N` [CBK006350], the viability at 28.5 h, 10 µM was 79.7%.

`O=C(O)/C=C/C(=O)Nc1ccccc1Br` [CBK086488]: the viability at 28.5 h, 10 µM amounted to 106%.

For the compound `Nc1ncnc2[nH]nc(Nc3ccc(F)cc3)c12` [CBK122523], the viability at 28.5 h, 10 µM stood at 79%.

As for `O=C(NCc1cccnc1)N1CCCCC1CO` (centres unmarked) [CBK156169], the viability at 28.5 h, 10 µM amounted to 105%.

`CC1(C)Cc2ccccc2C(NCC(=O)O)=N1` [CBK262562]: the viability at 28.5 h, 10 µM worked out at 83%.

For `Cc1ccccc1-c1nnc(NC(=O)c2ccc(N3C(=O)CCC3=O)cc2)s1` [CBK287332], the viability at 28.5 h, 10 µM turned out to be 85.9%.

As to `CS(=O)(=O)N1CC2(CCN(CCO)CC2)c2ccccc21` [CBK126677], the viability at 28.5 h, 10 µM turned out to be 94.5%.

`CCN(CC)S(=O)(=O)c1cc(C(=O)NC2CCCCC2)ccc1Br` [CBK058354]: the viability at 28.5 h, 10 µM turned out to be 96.3%.

With `CN(C)S(=O)(=O)c1ccc(NC(=O)CCC(=O)O)cc1` [CBK267156], the viability at 28.5 h, 10 µM is 91.6%.

Regarding `COC(=O)[C@H](CC1CCCCC1)NS(=O)(=O)c1ccc(C(C)C)cc1` [CBK044551], the viability at 28.5 h, 10 µM turned out to be 96.3%.

Turning to `CCC1(CC)OC(NC(C)c2ccccc2F)=NC1=O` (centres unmarked) [CBK132018], the viability at 28.5 h, 10 µM came to 87.1%.

Consider `COc1ccccc1-c1nnc(NC(=O)COc2ccccc2)o1` [CBK287590], for which the viability at 28.5 h, 10 µM stood at 106%.

In the case of `O=C(O)CCC/N=C1/CCCc2ccccc2N1` [CBK261435], the viability at 28.5 h, 10 µM turned out to be 104%.

In the case of `NC(=O)CN1CCC[C@@H]2NC(=O)COc3ccccc3C(=O)N[C@@H]3CCOC[C@@H]3C/C=C/C[C@@H]21` [CBK292041], the viability at 28.5 h, 10 µM was 103%.

Consider `CC(=O)N1C[C@@H]2CCCCN(CCOc3ccccc3)[C@@H]2C1` [CBK285494], for which the viability at 28.5 h, 10 µM is 107%.

As to `CC(C)(C)c1ccc(NC(=O)N2CCCN(Cc3ccccc3)CC2)cc1` [CBK085876], the viability at 28.5 h, 10 µM was determined as 116%.

Take `CCC(CO)Nc1nccnc1-c1cccc(C(=O)N2CCN(C)CC2)c1` (centres unmarked) [CBK037087]: the viability at 28.5 h, 10 µM is 92.6%.

With `O=C(NCC1CCCN1)c1cnn(-c2ccc(Cl)cc2)c1C(F)(F)F` (centres unmarked) [CBK115925C], the viability at 28.5 h, 10 µM was 101%.

Take `O=C(O)CC(NC=C1C(=O)CCCC1=O)C(=O)O` (centres unmarked) [CBK261997]: the viability at 28.5 h, 10 µM was 85.2%.

Take `CC(c1cc2ccccc2s1)N(O)C(N)=O` (centres unmarked) [CBK008078]: the viability at 28.5 h, 10 µM came out at 98.2%.

With `CC(C)(O)C1CCCN(C(=O)c2cc(COc3cccc(F)c3)[nH]n2)C1` (centres unmarked) [CBK306653], the viability at 28.5 h, 10 µM is 99.9%.

As for `CC(SCc1ccccc1)C(=O)NCc1ccnc(OCC(F)(F)F)c1` (centres unmarked) [CBK298325], the viability at 28.5 h, 10 µM is 111%.

As to `CC1(C)CC(=O)C2=C(C1)Nc1nn(-c3ccccc3)c(O)c1C2c1cccs1` (centres unmarked) [CBK266333], the viability at 28.5 h, 10 µM worked out at 94%.

Consider `COCc1cc(=O)[nH]c(N2CCN(Cc3ccccc3)CC2)n1` [CBK270253], for which the viability at 28.5 h, 10 µM turned out to be 88.4%.

Regarding `Cc1nnc(Sc2cccc(C(F)(F)F)n2)s1` [CBK115222], the viability at 28.5 h, 10 µM is 95.4%.

As for `O=C(CCSc1ccc(Cl)cc1)NCCN1CCOCC1` [CBK269352], the viability at 28.5 h, 10 µM was 98.2%.

As to `O=C1CC(C(=O)c2ccccc2)NC(N2CCOCC2)=N1` (centres unmarked) [CBK267352], the viability at 28.5 h, 10 µM amounted to 105%.

Take `CCC1CCCCN1C(=O)c1ccnc(C)c1` (centres unmarked) [CBK081093]: the viability at 28.5 h, 10 µM was 91.3%.

With `CCNC(=O)c1ccc(-c2ccc(C(=O)N(C)C)cc2)nc1` [CBK158361], the viability at 28.5 h, 10 µM was determined as 91.7%.

On to `O=C(O)/C(=C\c1ccc(Cl)cc1)NC(=O)c1ccccc1I` [CBK265701], for which the viability at 28.5 h, 10 µM came out at 90.1%.

As for `N#CCCN(C(=O)NCc1ccc(Cl)c(Cl)c1)C1CCCCC1` [CBK156349], the viability at 28.5 h, 10 µM came out at 85.5%.

With `CCC(CN1CCOCC1)n1cncc1-c1[nH]c2ccccc2c1C` (centres unmarked) [CBK281800], the viability at 28.5 h, 10 µM amounted to 106%.

Regarding `O=C(CN1CCOCC1)N1CCC(c2cccc(Cc3ccc(C(F)(F)F)cc3)n2)CC1` [CBK286508], the viability at 28.5 h, 10 µM turned out to be 101%.

For `Cc1cc(-c2nccnc2NCc2ccccn2)cc(C)c1O` [CBK036921], the viability at 28.5 h, 10 µM stood at 94.2%.

Turning to `CCOc1ccc(N2C(=O)CC(NC3CCN(c4ncccn4)CC3)C2=O)cc1` (centres unmarked) [CBK269972], the viability at 28.5 h, 10 µM was 112%.

For `C/C(CC(=O)Nc1ccccc1C(N)=O)=N\NC(=O)c1ccoc1C` [CBK262957], the viability at 28.5 h, 10 µM came out at 100%.

In the case of `CC(C)n1ccc2cc(C(=O)NC3CCOC(C)(C)C3)ccc21` (centres unmarked) [CBK304366], the viability at 28.5 h, 10 µM was 90.6%.

On to `COc1cccc(CCN(Cc2ccc(S(=O)(=O)N3CCOC3=O)cc2)Cc2cccc(OCCO)c2)c1` [CBK014806], for which the viability at 28.5 h, 10 µM amounted to 98.5%.
